Data on one compound can be found in US20250064794A1, “A THERAPEUTIC COMBINATION COMPRISING A TIGIT ANTAGONIST, A PD-1 ANTAGONIST, AND LENVATINIB” (EISAI R&D MANAGEMENT CO., LTD., priority 2021, published 2025).

Broadly, the TGI is how far tumour growth fell short of that in controls. For orientation: half-life means the time in which the quantity being followed falls by half.

In one series the test system is CT26 tumor. Kind of series: Anti-tumor efficacy in CT26 tumor model. The format is in vivo, female BALB/c mice. An excerpt: The present Example describes anti-tumor effects of a combination of a TIGIT antagonist, a PD-1 antagonist and lenvatinib using a CT26 tumor model.
Prior to treatment initiation, female BALB/c mice aged 8 weeks weighing between 18 to 21 grams were anesthetized and subcutaneously injected into the rear flank with 0.3×10^6 CT26 log-phase sub-confluent cells. When the mean tumor volume of inoculated animals with CT26 reached approximately 146 mm^3 (13 days later) mice were pair-matched into 8 treatment groups consisting of 10 mice per group.
Antibody Reagents in this Example Include: • Anti-PD-1 mIgG1 antibody, which is a murinized version of a rat anti-mouse PDT Ab with a mouse IgG1 Fe; • Anti-TIGIT mIgG2a antibody having a mouse Fe region of mIgG2a subtype that is the murine counterpart isotype to human isotype IgG1; • Isotype mIgG1 antibody, which is a mouse IgG1 isotype-matched control monoclonal antibody specific for adenoviral hexon 25; and • Isotype mIgG2a antibody, which is a mouse IgG2a isotype-matched control monoclonal antibody specific for adenoviral hexon 25.
• 1) 0.5% methylcellulose (Vehicle)+isotype mIgG1 antibody+isotype mIgG2a antibody; • 2) Vehicle+anti-PD-1 mIgG1 antibody+isotype mIgG1 antibody; • 3) Vehicle+isotype mIgG1 antibody+anti-TIGIT mIgG2a antibody; • 4) Lenvatinib+isotype mIgG1 antibody+isotype mIgG2a antibody; • 5) Vehicle+anti-PD-1 mIgG1 antibody+anti-TIGIT mIgG2a antibody; • 6) Lenvatinib+anti-PD-1 mIgG1 antibody+isotype mIgG2a antibody; • 7) Lenvatinib+isotype mIgG1 antibody+anti-TIGIT mIgG2a antibody; and • 8) Lenvatinib+anti-PD-1 mIgG1 antibody+anti-TIGIT mIgG2a antibody.
Vehicle and lenvatinib were orally gavage-dosed once daily (QD) at 10 mg/kg body weight. Isotype control, a mouse monoclonal antibody specific for adenoviral hexon on IgG1 or IgG2a backbones, as well as anti-PD-1 and anti-TIGIT antibodies were dosed intraperitoneally every 5 days at 10 mg/kg body weight. Start of treatments was considered Day 0 and dosing based on described schedules continued as described until Day 40. […]

The conditions of series [1]: in vivo; cited from earlier work.
The mark [2] stands for this setting: Day 40, 10 mice per group, lenvatinib 10 mg/kg QD, antibodies 10 mg/kg IP every 5 days.

SMILES strings stand for the structures.

For `COc1cc2nccc(Oc3ccc(NC(=O)NC4CC4)c(Cl)c3)c2cc1C(N)=O` [Lenvatinib monotherapy, 4-[3-chloro-4-(cyclopropylaminocarbonyl)aminophenoxy]-7-methoxy-6-quinolinecarboxamide], in the series with CT26 tumor (CT26 s.c. tumors, treatment started at 146 mm^3, lenvatinib 10 mg/kg orally QD, antibodies 10 mg/kg intraperitoneally every 5 days, vs Vehicle group at Day 12), the “TGI at Day 12” value is given as 36% (p = 0.014). Moreover, in the series with CT26 tumor (setting [2]), the “End of study CRs (complete tumor regressions)” value was 0 CRs, 0 PRs and the “End of study PRs (partial tumor regressions)” value was 0 CRs, 0 PRs. In addition, the half-life in series [1] was 28 h.
